Data on 1 molecule can be found in patent US20210220356A1, “DIHYDROPYRIMIDINE DERIVATIVES AND USES THEREOF IN THE TREATMENT OF HBV INFECTION OR OF HBV-INDUCED DISEASES” (Janssen Sciences Ireland Unlimited Company, priority 2018, published 2021).

A short description of data set [1]: Cytotoxicity determination in HepG2.2.15 cells (CCK-8). The format is cell-based. The note with it: human; HepG2.2.15 cells, 5,000 cells/well, 6 days of compound treatment, CCK-8 absorbance 450 nm, highest concentration 100 uM. The procedure, abridged:
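HepG2.2.15 cells, 5,000/well in 2% FBS medium, treated 6 days with compound (medium refreshed midway), 8-point 3-fold dilutions from 100 uM top. Viability read by CCK-8, 2.5 h at 37° C, absorbance 450 nm with 630 nm reference; CC50 from curve fitting.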

In the next data set the test system is HBV. In words: HBV inhibitory activity in HepG2.2.15 cells (HBV DNA in culture medium by q-PCR). The format is cell-based. The settings on record: Hepatitis B virus, HepG2.2.15, 144 h. The procedure, abridged: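 HepG2.2.15 cells (40,000/well, 2% FBS) treated 6 days with compounds, medium refreshed once; 8 points, 3-fold dilution, top 10 uM. Secreted HBV DNA in medium extracted and quantified by q-PCR; EC50 calculated from dose-response.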

SMILES strings stand for the structures.

The molecule `COC(=O)C1=C(C2CCc3nc(C(=O)O)oc3C2)NC(c2nccs2)=NC1c1ccc(F)c(F)c1Cl` (centres unmarked) [Compound 78c, lithium 6-(6-(2-chloro-3,4-difluorophenyl)-5-(methoxycarbonyl)-2-(thiazol-2-yl)-3,6-dihydropyrimidin-4-yl)-4,5,6,7-tetrahydrobenzo[d]oxazole-2-carboxylate] displayed a CC50 at 6 days in data set [1] of 52 µM. A half-maximal response with HBV (EC50) required 0.0571 µM.

By CC50 is commonly meant the concentration giving 50% cytotoxicity. A lower CC50 goes with greater toxicity to the cells. One may read the EC50 as the concentration needed to bring the measured effect to its halfway point.
